Values after ≈ are worked out from the molar mass of the structure shown. Where two headings read alike, the source gives them in different places. Values belong to the compound of their own block, whether it stands above or below them.
Assays:
[1] = cited from earlier work; for log P: no own measurement; for Log P of 2nd API drug: table of exemplary 2nd API drugs
[2] = Shake-flask determination of maximum solubility of DIM; format: physicochemical; conditions: for solubility: 37 °C, thermodynamic from solid, read-out: maximal solubility
Protocol: (§1) In directly determining the solubility of DIM the shake-flask method for determination of maximum solubility in aqueous media was utilized. The solubility was determined as described by Lindenberg et al., 2004, Eur J Pharm Biopharm. 58(2):265-78. The drug was weighed in excess of its expected solubility in Uniprep® vials equipped with a 0.45-μm membrane filter, and 2 ml of Milli-Q water, 0.01N HCL (pH 2.0), or phosphate buffer (pH 7.4) (USP) was added into the vial. The vials were incubated at 37±0.5° C. while shaking on a “Polymax 1040” orbital shaker (Heidolph, Schwabach). The samples of the solutions were taken after 4 or 24 hours by pressing the Uniprep® plunger down, diluted as appropriate, and the concentration of DIM was analyzed by HPLC, as described below. The measurements were done in triplicate. The maximum concentration of DIM in aqueous media used in this study was 0.6 μg/ml. The solubility or stability was not influenced by pH and was similar in water, 0.01N HCl or PBS (pH 7.4).

[3] = Experimental log P of DIM (octanol / aqueous shake-flask, HPLC); format: physicochemical; conditions: octanol / aqueous media (separate shake-flask solubilities); from octanol and aqueous shake-flask results; read-out: Experimental log P Determination
Protocol: as §1

[4] = Solubility of DIM in individual excipients (incremental addition, microscopic observation); format: physicochemical
Protocol: The first step in this development process was the testing of a variety of excipients chosen as potentially active in solubilizing DIM. […] The method involved weighing of approximately 2 grams of each of the liquid excipients into a small vial. Subsequently, a small amount of DIM was added and the mixture was shaken.
The method involved weighing of approximately 2 grams of each of the liquid excipients into a small vial. Subsequently, a small amount of DIM was added and the mixture was shaken. […] Continued testing of acceptable oil solvents for, e.g., nutritional supplement, self-emulsifying formulations using DIM as a representative DIM-related indole active ingredient included testing of the following oils: […]

[5] = Particle size after dispersion and spontaneous emulsion formation in water (laser light scattering); format: physicochemical; conditions: Malvern Mastersizer, DIM as supplied by BioResponse
Protocol: Each of the formulations were tested by dispersing approximately 1 gram of the candidate formulation in 200 mL of deionized water at approximately 37° C. with slow stirring of a magnetic spin bar in a 1 L beaker. Within five minutes of the addition, sufficient mixture was added to a Malvern Mastersizer dynamic laser light scattering instrument to satisfy the obscuration of the laser beams needed for measurement.
Some of the formulations were formulated with and without Soluplus and with and without phosphatidyl choline-rich isolates from lecithin. The formulations were tested by dispersing approximately 1 gram of the candidate formulation in 200 mL of deionized water at approximately 37° C. with slow stirring of a magnetic spin bar in a 1 L beaker. Within five minutes of the addition, sufficient mixture was added to a Malvern Mastersizer dynamic laser light scattering instrument to satisfy the obscuration of the laser beams needed for measurement.
The dispersions of Formulations R and T were tested for particle size by laser diffraction following dispersion and spontaneous emulsion formation in water. […] The particle size determined is expressed as diameter in microns (μ) in the following chart, and comparison is made to other nutritional and pharmaceutical formulations described herein: […]

[6] = Single dose human oral bioavailability study (plasma DIM by LC-MS/MS); format: in vivo; conditions: both sexes
Protocol: Study Design: Single Center, Single-Blind, Single Dose, Oral Bioavailability Study, with Subject Crossover.
In Part I of the Study, a treatment group was administered a 300 mg dose of DIM from BR-DIM or a 300 mg dose of DIM from crystalline DIM on the first study day, followed by crossover to the other DIM formulation on the second study day, at least 14 days following the first treatment. 3 subjects were given crystalline DIM, 4 subjects were given BR-DIM.
In Part II of the Study, five individuals, four of whom participated in Part I of the Study, were administered a 300 mg dose of DIM from DIM SMEDDS Formulation D. Testing of DIM SMEDDS formula D took place on one day with 5 subjects. The subjects were all healthy, adult volunteers, both male and female, not consuming DIM containing supplements and in a fasting state on study days. Volunteers agreed not to consume cruciferous vegetable for one week prior to study days. Study groups consisted of 3, 4, or 5 individuals.
A baseline blood specimen was collected. For Part I of the Study, subjects ingested matching, opaque gelatin capsules containing either crystalline DIM (300 mg) or BR-DIM providing 300 mg DIM. Then, the subjects provided 8 cc samples of blood was collected at Baseline, and 1 hr, 2 hr, 3 hr, 4 hr, and 6 hr after administration of each of the formulations. A standard small meal was given at 4 hrs.
A baseline blood specimen was collected. Subjects ingested opaque gelatin capsules containing SEDDS DIM formulation (in particular, Formulation D described above) providing 300 mg dissolved DIM. The DIM SMEDDS formulation was provided in 3 hard gelatin capsules each containing 100 mg of DIM. Subsequently, 8 cc samples of blood were obtained and 30 cc samples of urine will be obtained according to the following chart. Blood was collected at Baseline, and 1 hr, 2 hr, 3 hr, 4 hr, and 6 hr after administration of the drug. A standard small meal was given at 4 hrs.
Blood sample handling: Within 15 minutes, plasma was centrifuged and frozen, stored on dry ice, then stored at minus 80 until assayed.
Pharmacokinetic evaluation was performed for all subjects. Blood samples (˜8 ml for each) were collected at 0 (baseline), 1, 2, 3, 4, and 6 hours after the oral administration of the dose of DIM, BR-DIM, or DIM SMEDDS formulation (i.e., Formulation D described above). Within 15 minutes of the collection, the blood samples were centrifuged at 4° C., at 2000 g for 10 minutes, and plasma was collected immediately after centrifugation and transferred to the screw-cap polypropylene cryogenic tubes. The plasma samples were stored at −80° C. until analysis.
The concentrations of DIM in human plasma samples were determined by a validated high-performance liquid chromatography with tandem mass spectrometry (LC-MS/MS) method. Briefly, to 50 μl human plasma, 100 μl of 2% formic acid in methanol (containing 1 μg/mL internal standard zileuton) was added to precipitate proteins. The mixture was vortex-mixed for 1 minute, and centrifuged at 14,000 g at 4° C. for 10 minutes. The supernatant was collected and 10 μl was injected into the LC-MS/MS system. Chromatographic analysis was performed using a Waters model 2690 separation system (Milford, Mass., USA). The analytes were separated on a Waters X-Terra MS column (150 mm×2.1 mm i.d.) using a mobile phase consisting of methanol/0.45% formic acid (70:30, v/v), and isocratic flow at 0.2 mL/min. The analytes were monitored by a Waters Micromass triple quadrupole mass spectrometer (Milford, Mass., USA) using an electrospray probe in the positive ionization mode operating at a cone voltage of 23V for DIM and 13V for the internal standard zileuton. Samples were introduced into the ionization source through a heated nebulized probe (350° C.). The collision energy was set at 30 eV and 9 eV for DIM and zileuton, respectively. The transitions at 129.9>76.8 and 237.1>161.1 were monitored for DIM and zileuton, respectively. […]

[7] = Intra-individual comparison of DIM plasma levels, one adult subject; format: in vivo; conditions: human, same adult subject, 300 mg oral
Protocol: Repeated single-use of 300 mg oral doses of DIM in different DIM formulations was conducted. Absorption studies using the same adult subject on separate test days were performed. This allowed comparison of DIM absorption and Plasma Pharmacokinetics through comparison of DIM plasma levels measured following administration of unformulated crystalline DIM, following administration of absorption-enhanced, microencapsulated DIM (BR-DIM), following administration of DIM SMEDDS Formulation “D” without Poloxamer 124, and following administration of DIM SMEDDS Formulation “G” with Poloxamer 124, to the human subject. The same oral administration and timed plasma sampling protocol was used on different study days, separated by at least 2 weeks. Plasma level results for each time point are presented in the following chart.

[8] = healthy humans, single oral dose 300 mg DIM, averaged

Compound: CC(O)(CS(=O)(=O)c1ccc(F)cc1)C(=O)Nc1ccc(C#N)c(C(F)(F)F)c1 (centres unmarked) [Biculatamide, Bicalutamide]
- log P [1]: 4.94

- solubility ([2]; 0.01N HCl, simulated gastric fluid, aqueous acid environment of pH 2): 0.6 µg/mL (≈ 2.44 µM)
- solubility ([2]; in water): 0.7 µg/mL (≈ 2.84 µM)
- concentration of DIM in Octanol ([2]; Octanol, shake-flask method, HPLC): 2,300 μg/ml
- maximum concentration of DIM in aqueous media ([2]; water, 0.01N HCl (pH 2.0) or phosphate buffer (pH 7.4), 37°C): 0.6 µg/mL
- logP [3]: 3.58
- DIM Solubility % ([4]; in Black Cumin oil): 2%
- DIM Solubility ([4]; in Capryol 90 (Propylene glycol monocaprylate)): 7%
- DIM Solubility ([4]; in Capryol PGMC (Propylene glycol monocaprylate)): 8%
- DIM Solubility ([4]; in Crodasol HS-HP (monoesters and diesters of 12-hydroxystearic acid and macrogols)): 14%
- DIM Solubility ([4]; in Gelucire 44/14 (Lauroyl polyoxyl-32 glycerides)): 19%
- DIM Solubility ([4]; in Labrafac AC WL1349 (Medium-chain triglycerides)): 3%
- DIM Solubility ([4]; in Labrafac PG (Propylene glycol di-caprylate)): 4.5%^
- DIM Solubility ([4]; in Labrafil M1944CS (Oleoyl polyoxyl-6 glycerides)): 5%
- DIM Solubility ([4]; in Labrasol ALF (Caprylocaproyl polyoxyl-8 glycerides)): 25%
- DIM Solubility ([4]; in Lauroylglycol 90 (Propylene glycol monolaurate)): 3%
- DIM Solubility ([4]; in Maisine 35-1 (Glyceryl monolinoleate)): 2%
- DIM Solubility ([4]; in Peceol (Glycerol monooleate)): 2%
- DIM Solubility ([4]; in Peppermint oil): 4%
- DIM Solubility ([4]; in Plurol Oleique (Glycerol mono/di-oleate)): 5%
- DIM Solubility ([4]; in Polysorbate 80): 12%
- DIM Solubility ([4]; in Propylene glycol): 2%
- DIM Solubility % ([4]; in Rosemary Oil): 6%
- DIM Solubility ([4]; in Transcutol (Diethylene glycol monoethyl ether)): >25%
- ability of oil to dissolve DIM ([4]; olive oil or sunflower oil): very low ability to dissolve DIM
- Particle Size Diameter after Dispersion in Water (nm) [5]: 3,010^1^ nm
- AUC(0-inf) [6, 8]: 98.5 ng·h/mL
- Cmax [6, 8]: 18.1 ng/mL
- Tmax [6, 8]: 1.7 h
- half-life [6, 8]: 2.2 h
- concentration at 0 h ([6]; time 0 hour (baseline), 300 mg oral, read-out: averaged plasma level of DIM): 0 ng/mL
- concentration at 1 h ([6]; time 1 hour, 300 mg oral, read-out: averaged plasma level of DIM): 17.8 ng/mL
- concentration at 2 h ([6]; time 2 hour, 300 mg oral, read-out: averaged plasma level of DIM): 16.7 ng/mL
- concentration at 3 h ([6]; time 3 hour, 300 mg oral, read-out: averaged plasma level of DIM): 10.6 ng/mL
- concentration at 4 h ([6]; time 4 hour, 300 mg oral, read-out: averaged plasma level of DIM): 10 ng/mL
- concentration at 6 h ([6]; time 6 hour, 300 mg oral, read-out: averaged plasma level of DIM): 5.8 ng/mL
- AUC ([6]; time zero to infinity, 300 mg oral): 98.5 ng·h/mL
- AUC [7]: 17 ng·h/mL
- Cmax [7]: 6.8 ng/mL
- concentration at 0 h ([7]; time 0 hr, read-out: Plasma level of DIM): 0 ng/mL
- concentration at 1 h ([7]; time 1 hr, read-out: Plasma level of DIM): 4.5 ng/mL
- concentration at 2 h ([7]; time 2 hr, read-out: Plasma level of DIM): 6.8 ng/mL
- concentration at 3 h ([7]; time 3 hr, read-out: Plasma level of DIM): 4.7 ng/mL
- concentration at 4 h ([7]; time 4 hr, read-out: Plasma level of DIM): 2.6 ng/mL
Compound: c1ccc2c(Cc3c[nH]c4ccccc34)c[nH]c2c1 [DIM, 3,3′-diindolylmethane]

Compound: COc1cc2ncnc(Nc3ccc(F)c(Cl)c3)c2cc1OCCCN1CCOCC1 [Gefitinib, N-(3-chloro-4-fluoro-phenyl)-7-methoxy-6-(3-morpholin-4-ylpropoxy)quinazolin-4-amine]
- log P [1]: 3.72
- Log P of 2nd API drug [1]: 3.72

Compound: CNC(=O)c1cccc2cc(Oc3ccnc4cc(OCC5(N)CC5)c(OC)cc34)ccc12 [Lucitanib, 6-[7-[(1-aminocyclopropyl)methoxy]-6-methoxyquinolin-4-yl]oxy-N-methylnaphthalene-1-carboxamide]
- log P [1]: 3.81
- Log P of 2nd API drug [1]: 3.81

Compound: CCCCCCCCCCCCCCCC(=O)OC/C=C(C)/C=C/C=C(C)/C=C/C1=C(C)CCCC1(C)C [Retinyl palmitate, Retinyl Palmitate]
- log P [1]: 5.68

Compound: COc1cc(C)c(/C=C/C(C)=C/C=C/C(C)=C/C(=O)O)c(C)c1C [acitretin]
- log P [1]: 5.73

Compound: CC1=C(/C=C/C(C)=C/C=C/C(C)=C\C(=O)O)C(C)(C)CCC1 [isotretinoin, 13-cis retinoic acid]
- log P [1]: 6.83

Compound: CC(C)=CCC/C(C)=C/CC/C(C)=C/CC/C(C)=C/CC1=C(C)C(=O)c2ccccc2C1=O [menaquinone-4]
- log P [1]: 10-12

Compound: Vitamin D
- log P [1]: 7.5

Reference: US10441569B2, “Self-emulsifying formulations of DIM-related indoles” (BioResponse, L.L.C., priority 2015, dated 2019)
